The target in test [1] is T1, human adenosine A2A receptor (Homo sapiens, UniProt P29274).
T1 construct: expressed in transfected cells; host or cells: CHO cells, Semliki Forest virus expression system; membrane preparation
The test can be described thus: Human adenosine A2A receptor [3H]-SCH-58261 binding assay. To be noted: for Ki: affinity to human adenosine A2A receptor, read-out: Ki HA2A; for selectivity (A1/A2a): calculated ratio of the affinity to the HA1 receptor to the HA2a receptor.

The target in test [2] is T2, HA1 adenosine receptor (Homo sapiens, UniProt P30542).
T2 sequence (P30542 1-326): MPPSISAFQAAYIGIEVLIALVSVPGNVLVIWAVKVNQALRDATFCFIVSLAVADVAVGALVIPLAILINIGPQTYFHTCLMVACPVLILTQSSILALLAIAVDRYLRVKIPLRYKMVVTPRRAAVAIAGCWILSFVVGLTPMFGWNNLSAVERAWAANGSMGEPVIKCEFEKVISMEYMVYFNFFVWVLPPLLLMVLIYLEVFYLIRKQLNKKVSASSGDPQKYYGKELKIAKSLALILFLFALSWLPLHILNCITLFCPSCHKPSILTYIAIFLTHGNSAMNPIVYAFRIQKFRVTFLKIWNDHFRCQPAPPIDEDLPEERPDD
In words: Human adenosine A1 receptor affinity (Ki hA1). Type of test: binding. To be noted: affinity to human adenosine A1 receptor.

SMILES strings stand for the structures.

T1 sequence (P29274 whole entry): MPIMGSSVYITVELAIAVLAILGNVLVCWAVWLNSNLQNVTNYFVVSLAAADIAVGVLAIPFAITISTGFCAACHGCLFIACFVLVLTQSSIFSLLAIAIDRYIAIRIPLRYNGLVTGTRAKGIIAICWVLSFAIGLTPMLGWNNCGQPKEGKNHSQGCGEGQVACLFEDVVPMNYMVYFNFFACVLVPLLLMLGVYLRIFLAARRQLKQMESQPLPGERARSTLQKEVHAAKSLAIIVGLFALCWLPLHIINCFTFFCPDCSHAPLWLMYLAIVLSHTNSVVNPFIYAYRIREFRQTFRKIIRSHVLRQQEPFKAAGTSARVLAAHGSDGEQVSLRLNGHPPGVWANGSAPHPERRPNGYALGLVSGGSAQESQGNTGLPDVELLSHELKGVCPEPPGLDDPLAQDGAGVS

Consider `Nc1cc(C(=O)N(Cc2ccccc2)Cc2ccccc2)cc2nc(-c3ccc(Br)o3)nn12` [Example 313, 5-Amino-2-(5-bromo-furan-2-yl)-[1,2,4]triazolo[1,5-a]pyridine-7-carboxylic acid dibenzylamide], for which the inhibitory constant (Ki) in test [1] was determined as 0.0012 µM; in test [2], 0.0178 µM. Also, in test [1], the “selectivity (A1/A2a)” value was 14.8.

For `CCN(Cc1ccncc1)C(=O)c1cc(N)n2nc(-c3ccc(Br)o3)nc2c1` [Example 314, 5-Amino-2-(5-bromo-furan-2-yl)-[1,2,4]triazolo[1,5-a]pyridine-7-carboxylic acid ethyl-pyridin-4-ylmethyl-amide], the results for the Ki in test [1] and in test [2] were 0.0012 µM and 0.0591 µM, respectively. Besides, in test [1], the “selectivity (A1/A2a)” value is listed as 49.3.

In the case of `Nc1cc(C(=O)N2CC=CCC2)cc2nc(-c3nccs3)nn12` [Example 315, (5-Amino-2-thiazol-2-yl-[1,2,4]triazolo[1,5-a]pyridin-7-yl)-(3,6-dihydro-2H-pyridin-1-yl)-methanone], in test [1], the Ki was determined as 0.0975 µM and the “selectivity (A1/A2a)” value is given as 20.4. Moreover, affinity in test [2] was put at a Ki of 1.99 µM.

Turning to `CC1CCCN(C(=O)c2cc(N)n3nc(-c4nccs4)nc3c2)C1` (stereo not drawn) [Example 316, (5-Amino-2-thiazol-2-yl-[1,2,4]triazolo[1,5-a]pyridin-7-yl)-(3,methyl-piperidin-1-yl)-methanone], in test [1], the inhibition constant Ki worked out at 0.0723 µM and the “selectivity (A1/A2a)” value was 30.3. Further, the Ki in test [2] turned out to be 2.19 µM.

On to `Nc1cc(C(=O)N2CCCCCC2)cc2nc(-c3nccs3)nn12` [Example 317, (5-Amino-2-thiazol-2-yl-[1,2,4]triazolo[1,5-a]pyridin-7-yl)-azepan-1-yl-methanone], for which the Ki in test [1] is 0.0345 µM; in test [2] it was 1.16 µM. Besides, the “selectivity (A1/A2a)” value in test [1] was 33.6.

As to `CCCN(CC1CC1)C(=O)c1cc(N)n2nc(-c3nccs3)nc2c1` [Example 319, 5-Amino-2-thiazol-2-yl-[1,2,4]triazolo[1,5-a]pyridine-7-carboxylic acid cyclopropylmethyl-propyl-amide], in test [1], the Ki was found to be 0.087 µM and the “selectivity (A1/A2a)” value is on record as 14.3. The compound also returned an inhibition constant Ki in test [2] of 1.24 µM.

Take `CC1CCCC(C)N1C(=O)c1cc(N)n2nc(-c3nccs3)nc2c1` (stereo not drawn) [Example 320]: in test [1], the inhibition constant (Ki) turned out to be 0.0827 µM and the “selectivity (A1/A2a)” value is 7.4. In test [2], the Ki was found to be 0.614 µM.

For the compound `CN(CCc1ccccc1)C(=O)c1cc(N)n2nc(-c3nccs3)nc2c1` [Example 322, 5-Amino-2-thiazol-2-yl-[1,2,4]triazolo[1,5-a]pyridine-7-carboxylic acid methyl-phenethyl-amide], the Ki in test [1] came out at 0.127 µM; in test [2] it was 1.22 µM. Besides, the “selectivity (A1/A2a)” value in test [1] is given as 9.6.

In the case of `CCN(Cc1ccccc1)C(=O)c1cc(N)n2nc(-c3nccs3)nc2c1` [Example 323, 5-Amino-2-thiazol-2-yl-[1,2,4]triazolo[1,5-a]pyridine-7-carboxylic acid benzyl-ethyl-amide], in test [1], the inhibition constant (Ki) came out at 0.0252 µM and the “selectivity (A1/A2a)” value is 13.6. In test [2], this compound showed an inhibition constant Ki of 0.342 µM.

For the compound `CCN(Cc1ccncc1)C(=O)c1cc(N)n2nc(-c3nccs3)nc2c1` [Example 325, 5-Amino-2-thiazol-2-yl-[1,2,4]triazolo[1,5-a]pyridine-7-carboxylic acid ethyl-pyridin-4-ylmethyl-amide], the Ki in test [1] amounted to 0.0376 µM; in test [2], 1.33 µM. Also, in test [1], the “selectivity (A1/A2a)” value is recorded as 35.2.

Turning to `Nc1cc(C(=O)N(Cc2ccccc2)Cc2ccccc2)cc2nc(-c3nccs3)nn12` [Example 327, 5-Amino-2-thiazol-2-yl-[1,2,4]triazolo[1,5-a]pyridine-7-carboxylic acid dibenzylamide], in test [1], the inhibitory constant (Ki) was determined as 0.0058 µM and the “selectivity (A1/A2a)” value is 22.2. Affinity in test [2] was put at a Ki of 0.129 µM.

As to `CCNC(=O)c1cc(N)n2nc(-c3nccs3)nc2c1` [Example 328, 5-Amino-2-thiazol-2-yl-[1,2,4]triazolo[1,5-a]pyridine-7-carboxylic acid ethylamide], the Ki in test [1] came to 0.0317 µM; in test [2] it was 1.24 µM. For the same compound, the “selectivity (A1/A2a)” value in test [1] is recorded as 39.1.

Regarding `CC1CCCCN1C(=O)c1cc(N)n2nc(-c3nccs3)nc2c1` (stereo not drawn) [Example 329, (5-Amino-2-thiazol-2-yl-[1,2,4]triazolo[1,5-a]pyridin-7-yl)-(2-methyl-piperidin-1-yl)-methanone], in test [1], the inhibitory constant (Ki) was found to be 0.0473 µM and the “selectivity (A1/A2a)” value is listed as 41.9. The compound further had a Ki in test [2] of 1.98 µM.

As to `CC1CCN(C(=O)c2cc(N)n3nc(-c4nccs4)nc3c2)CC1` [Example 330, (5-Amino-2-thiazol-2-yl-[1,2,4]triazolo[1,5-a]pyridin-7-yl)-(4-methyl-piperidin-1-yl)-methanone], in test [1], the Ki came out at 0.0644 µM and the “selectivity (A1/A2a)” value is 43.1. Moreover, in test [2], the Ki came to 2.78 µM.

With `CCCN(CCC)C(=O)c1cc(N)n2nc(-c3nccs3)nc2c1` [Example 331, 5-Amino-2-thiazol-2-yl-[1,2,4]triazolo[1,5-a]pyridine-7-carboxylic acid dipropylamide], in test [1], the inhibition constant (Ki) amounted to 0.0875 µM and the “selectivity (A1/A2a)” value is 30.9. This compound showed a Ki in test [2] of 2.7 µM.

Turning to `Nc1cc(C(=O)N2CCCCCCC2)cc2nc(-c3nccs3)nn12` [Example 332, (5-Amino-2-thiazol-2-yl-[1,2,4]triazolo[1,5-a]pyridin-7-yl)-azocan-1-yl-methanone], in test [1], the Ki came out at 0.0172 µM and the “selectivity (A1/A2a)” value is 49.1. Also, in test [2], the inhibition constant Ki stood at 0.844 µM.

In the case of `CC1CC(C)CN(C(=O)c2cc(N)n3nc(-c4nccs4)nc3c2)C1` (stereo not drawn) [Example 333, (5-Amino-2-thiazol-2-yl-[1,2,4]triazolo[1,5-a]pyridin-7-yl)-(3,5-dimethyl-piperidin-1-yl)-methanone], in test [1], the inhibition constant Ki turned out to be 0.0361 µM and the “selectivity (A1/A2a)” value is 47.9. This compound also displayed an inhibitory constant (Ki) in test [2] of 1.73 µM.

With `CCCCN(CCC)C(=O)c1cc(N)n2nc(-c3nccs3)nc2c1` [Example 334, 5-Amino-2-thiazol-2-yl-[1,2,4]triazolo[1,5-a]pyridine-7-carboxylic acid butyl-propyl-amide], the values for the inhibitory constant (Ki) in test [1] and in test [2] were 0.098 µM and 1.79 µM, respectively. The “selectivity (A1/A2a)” value in test [1] is 18.3.

As to `CCNC(=O)c1cc(N)n2nc(-c3ccc(Br)o3)nc2c1` [Example 335, 5-Amino-2-(5-bromo-furan-2-yl)-[1,2,4]triazolo[1,5-a]pyridine-7-carboxylic acid ethylamide], the Ki in test [1] came out at 0.0252 µM; in test [2] it was 0.355 µM. In test [1], the “selectivity (A1/A2a)” value is 14.1.

Turning to `CC1CCN(C(=O)c2cc(N)n3nc(-c4ccc(Br)o4)nc3c2)CC1` [Example 337, [5-Amino-2-(5-bromo-furan-2-yl)-[1,2,4]triazolo[1,5-a]pyridin-7-yl]-(4-methyl-piperidin-1-yl)-methanone], in test [1], the inhibition constant Ki amounted to 0.0064 µM and the “selectivity (A1/A2a)” value was 28.6. Also, the Ki in test [2] turned out to be 0.183 µM.

Turning to `CCCN(CCC)C(=O)c1cc(N)n2nc(-c3ccc(Br)o3)nc2c1` [Example 338, 5-Amino-2-(5-bromo-furan-2-yl)-[1,2,4]triazolo[1,5-a]pyridine-7-carboxylic acid dipropylamide], the Ki came to 0.0031 µM in test [1] and 0.2 µM in test [2]. Also, the “selectivity (A1/A2a)” value in test [1] was 64.4.

Take `Nc1cc(C(=O)N2CCCCCCC2)cc2nc(-c3ccc(Br)o3)nn12` [Example 339, [5-Amino-2-(5-bromo-furan-2-yl)-[1,2,4]triazolo[1,5-a]pyridin-7-yl]-azocan-1-yl-methanone]: in test [1], the Ki turned out to be 0.0013 µM and the “selectivity (A1/A2a)” value is listed as 28.5. The compound further had a Ki in test [2] of 0.037 µM.

Turning to `CN(C(=O)c1cc(N)n2nc(-c3ccc(Br)o3)nc2c1)C1CCCCC1` [Example 340, 5-Amino-2-(5-bromo-furan-2-yl)-[1,2,4]triazolo[1,5-a]pyridine-7-carboxylic acid cyclohexyl-methyl-amide], in test [1], the inhibition constant (Ki) stood at 0.0026 µM and the “selectivity (A1/A2a)” value is listed as 29.7. In test [2], this compound showed a Ki of 0.0773 µM.

Turning to `CC1CC(C)CN(C(=O)c2cc(N)n3nc(-c4ccc(Br)o4)nc3c2)C1` (stereo not drawn) [Example 341, [5-Amino-2-(5-bromo-furan-2-yl)-[1,2,4]triazolo[1,5-a]pyridin-7-yl]-(3,5-dimethyl-piperidin-1-yl)-methanone], in test [1], the inhibition constant Ki came out at 0.0017 µM and the “selectivity (A1/A2a)” value is recorded as 70.3. In test [2], the affinity corresponds to a Ki of 0.12 µM.

As for `CCCCN(CCC)C(=O)c1cc(N)n2nc(-c3ccc(Br)o3)nc2c1` [Example 342, 5-Amino-2-(5-bromo-furan-2-yl)-[1,2,4]triazolo[1,5-a]pyridine-7-carboxylic acid butyl-propyl-amide], in test [1], the inhibition constant Ki worked out at 0.003 µM and the “selectivity (A1/A2a)” value is listed as 47.3. The compound further displayed an inhibitory constant (Ki) in test [2] of 0.142 µM.

As to `CN(Cc1ccccc1)C(=O)c1cc(N)n2nc(-c3ccc(Br)o3)nc2c1` [Example 343, 5-Amino-2-(5-bromo-furan-2-yl)-[1,2,4]triazolo[1,5-a]pyridine-7-carboxylic acid benzyl-methyl-amide], the figures for the Ki in test [1] and in test [2] were 0.0027 µM and 0.0422 µM, respectively. Besides, the “selectivity (A1/A2a)” value in test [1] is on record as 15.6.

With `C=CCN(C(=O)c1cc(N)n2nc(-c3ccc(Br)o3)nc2c1)C1CCCC1` [Example 344, 5-Amino-2-(5-bromo-furan-2-yl)-[1,2,4]triazolo[1,5-a]pyridine-7-carboxylic acid allyl-cyclopentyl-amide], the figures for the Ki in test [1] and in test [2] were 0.0016 µM and 0.0717 µM, respectively. Besides, the “selectivity (A1/A2a)” value in test [1] is reported as 44.8.

As usually defined, the Ki is the equilibrium dissociation constant of an inhibitor or competing ligand from its target.

Values taken from patent publication US6506772B1, “Substituted [1,2,4]triazolo[1,5a]pyridine derivatives with activity as adenosine receptor ligands” (Hoffmann-La Roche Inc., priority 2000, dated 2003).
